{"source": "patent US4438131A", "about": "“.OMEGA.-Cyano-1, .OMEGA.-diphenyl-azaalkane derivatives, their preparation and drugs containing them” (BASF Aktiengesellschaft, priority 1981, dated 1984)", "key": {"[1]": {"system": "creatine phosphate concentration in the myocardium", "assay": "Cardio-protective action against hypoxic cardiac metabolism disorders, oral, rats", "type": "in vivo, rat (Wistar)", "details": "compounds 2-40 mg/kg, verapamil up to 40 mg/kg", "experimental": "A drastic depletion of energy-rich phosphates in the mycocardium of anesthetized rats (Wistar, weight: 250-350 g, anesthetic: thiobutabarbital 100 mg/kg i.p.) was produced by standardized respiration with an oxygen-deficient mixture (2% of O2).\nThe test substances were administered to the still conscious animals 6 hours before the oxygen-deficient respiration. The percentage difference between the creatine phosphate concentration in the myocardium of animals pretreated with the test substance and that of the untreated hypoxic control animals was determined."}, "[2]": {"system": "collagen-induced platelet aggregation", "assay": "Platelet aggregation-inhibiting action after oral administration to rats", "details": "Rattus norvegicus, 1 h, read-out: Inhibition of aggregation, ED 33%", "experimental": "The substances were administered orally to male Sprague-Dawley rats (200-250 g). 1 hour after administration, samples of blood were taken under ether anesthetic, and platelet-rich plasma was obtained by centrifugation (300 g, 10 minutes at 4° C.). The platelet aggregation was measured photometrically, with the addition of MgCl2 and (end concentration of 10 mmoles/l) and Collagen Stago (end concentration of 0.02 mg/ml), in a Mark 3 Born Aggregometer. The maximum change in extinction/second was used as a measure of the aggregation."}, "[3]": {"system": "systolic blood pressure", "assay": "Antihypertensive action, spontaneously hypertensive rats (SHR), oral", "type": "in vivo", "details": "for Lowering of systolic blood pressure, R.A. (relative activity; verapamil = 1.00) / ED20: SHR, peroral; for ED20: Rattus norvegicus, po, read-out: Lowering of systolic blood pressure, ED 20%; for Antihypertensive action (in words): after 24 hours, SH rats, verapamil at 100 mg/kg", "method": "The substances were administered orally to male spontaneously hypertensive rats (SHR) of the Okamoto strain (weight: 300-400 g). The systolic blood pressure was determined non-operatively on the tails of the rats by piezo-crystal measurements before and 2, 6, 24 and, where relevant, 30 hours after administration.\nThe dose which reduced the systolic pressure by 20%, taking into consideration the values from untreated control animals, was taken as the ED 20%."}, "[4]": {"system": "passive cutaneous anaphylaxis (PCA)", "assay": "Antiallergic action, passive cutaneous anaphylaxis (PCA) in rats, oral", "type": "in vivo, rat (male)", "details": "for % inhibition (diameter of colored spot, PCA): 21.5 mg/kg oral", "method": "The model of passive cutaneous anaphylaxis (PCA) was used for this test.\nAnesthetized male rats (100-140 g) were sensitized by intradermal injection (shaven dorsal skin) of 0.1 ml of an ovalbumin antiserum. After a sensitizing period of about 48 hours, they were treated with the test substances (oral administration). After various latency periods (2, 6, 12 and 24 hours), the experimental animals were injected intravenously with an antigen/Evans blue solution. The animals were sacrificed in each case 30 minutes after the injection, and the dorsal skin was removed and the circular blue stain on the inner surface measured.\nThe antiallergic action was quoted as the relative inhibition (Δ%) of the diameter of the colored spot."}}, "note": "Where two headings read alike, the source gives them in different places."}
{"compound": "1-(3,5-Diethoxyphenyl)-3-methylaza-7-cyano-7-(3-ethoxyphenyl)-docosane [Example 68]", "values": [{"measurement": "Cardio-protective action (in words)", "setting": "[1]", "value": "particularly powerful action"}]}
{"compound": "CCCCCCCCCCCCC(C#N)(CCCN(C)CCc1cccc(OC)c1)c1cccc(OC)c1", "note": "(stereo not drawn) [Example 3, 1,7-bis-(3-Methoxyphenyl)-3-methylaza-7-cyano-nonadecane]", "values": [{"measurement": "ED33", "setting": "[2]", "value": 9.6, "unit": "mg/kg"}, {"measurement": "Lowering of systolic blood pressure, R.A. (relative activity; verapamil = 1.00)", "setting": "[3]; 2 hrs", "value": 0.93}, {"measurement": "Lowering of systolic blood pressure, R.A. (relative activity; verapamil = 1.00)", "setting": "[3]; 6 hrs", "value": 1.46}, {"measurement": "ED20", "setting": "[3]; 2 hrs", "value": 24.9, "unit": "mg/kg"}, {"measurement": "ED20", "setting": "[3]; 6 hrs", "value": 14.1, "unit": "mg/kg"}, {"measurement": "ED20", "setting": "[3]; 24 hrs", "value": 18.7, "unit": "mg/kg"}, {"measurement": "Antihypertensive action (in words)", "setting": "[3]", "value": "still have an antihypertensive action"}, {"measurement": "% inhibition (diameter of colored spot, PCA)", "setting": "[4]; latency period 2 hours", "value": 15, "unit": "%"}, {"measurement": "% inhibition (diameter of colored spot, PCA)", "setting": "[4]; latency period 6 hours", "value": 40, "unit": "%"}, {"measurement": "% inhibition (diameter of colored spot, PCA)", "setting": "[4]; latency period 12 hours", "value": 83, "unit": "%"}, {"measurement": "% inhibition (diameter of colored spot, PCA)", "setting": "[4]; latency period 24 hours", "value": 68, "unit": "%"}, {"measurement": "Antiallergic action (in words)", "setting": "[4]; after oral administration", "value": "long-lasting antiallergic action"}, {"measurement": "Antiallergic action compared with verapamil (in words)", "setting": "[4]; latency periods of 12 and 24 hours, oral", "value": "substantially more powerful action"}, {"measurement": "Cardio-protective action (in words)", "setting": "[1]", "value": "particularly powerful action"}]}
{"compound": "CCCCCCCCCCCCC(C#N)(CCCN(C)CCc1ccccc1)c1ccccc1", "note": "(stereo not drawn) [Example 5, 1,7-Diphenyl-3-methylaza-7-cyano-nonadecane]", "values": [{"measurement": "Cardio-protective action (in words)", "setting": "[1]", "value": "particularly powerful action"}]}
{"compound": "CCCCCCCCCCCCCCCC(C#N)(CCCN(C)CCc1cccc(OC)c1)c1cccc(OC)c1", "note": "(stereo not drawn) [Example 6, 1,7-bis-(3-Methoxyphenyl)-3-methylaza-7-cyano-docosane]", "values": [{"measurement": "ED33", "setting": "[2]", "value": 49, "unit": "mg/kg"}]}
{"compound": "CCCCCCCCCCCCC(C#N)(CCCN(C)CCc1cccc(OC)c1)c1ccc(OC)c(OC)c1", "note": "(stereo not drawn) [Example 19, 1-(3-Methoxyphenyl)-3-methylaza-7-cyano-7-(3,4-dimethoxyphenyl)-nonadecane]", "values": [{"measurement": "Lowering of systolic blood pressure, R.A. (relative activity; verapamil = 1.00)", "setting": "[3]; 2 hrs", "value": 3.09}, {"measurement": "Lowering of systolic blood pressure, R.A. (relative activity; verapamil = 1.00)", "setting": "[3]; 6 hrs", "value": 1.04}, {"measurement": "ED20", "setting": "[3]; 2 hrs", "value": 7.5, "unit": "mg/kg"}, {"measurement": "ED20", "setting": "[3]; 6 hrs", "value": 19.8, "unit": "mg/kg"}, {"measurement": "ED20", "setting": "[3]; 24 hrs", "value": 46.4, "unit": "mg/kg"}]}
{"compound": "CCCCCCCCCCCCC(C#N)(CCCN(C)CCc1cccc(OC)c1)c1cc(OC)c(OC)c(OC)c1", "note": "(stereo not drawn) [Example 20, 1-(3-Methoxyphenyl)-3-methylaza-7-cyano-7-(3,4,5-trimethoxyphenyl)-nonadecane]", "values": [{"measurement": "Lowering of systolic blood pressure, R.A. (relative activity; verapamil = 1.00)", "setting": "[3]; 2 hrs", "value": 6.27}, {"measurement": "Lowering of systolic blood pressure, R.A. (relative activity; verapamil = 1.00)", "setting": "[3]; 6 hrs", "value": 3.12}, {"measurement": "ED20", "setting": "[3]; 2 hrs", "value": 3.7, "unit": "mg/kg"}, {"measurement": "ED20", "setting": "[3]; 6 hrs", "value": 6.6, "unit": "mg/kg"}, {"measurement": "ED20", "setting": "[3]; 24 hrs", "value": 12.5, "unit": "mg/kg"}, {"measurement": "Antihypertensive action (in words)", "setting": "[3]", "value": "still have an antihypertensive action"}]}
{"compound": "CCCCCCCCCCCC(C#N)(CCCN(C)CCc1cccc(OC)c1)c1cccc(OC)c1", "note": "(stereo not drawn) [Example 25, 1,7-bis-(3-Methoxyphenyl)-3-methylaza-7-cyano-octadecane]", "values": [{"measurement": "Lowering of systolic blood pressure, R.A. (relative activity; verapamil = 1.00)", "setting": "[3]; 2 hrs", "value": 3.41}, {"measurement": "Lowering of systolic blood pressure, R.A. (relative activity; verapamil = 1.00)", "setting": "[3]; 6 hrs", "value": 2.02}, {"measurement": "ED20", "setting": "[3]; 2 hrs", "value": 6.8, "unit": "mg/kg"}, {"measurement": "ED20", "setting": "[3]; 6 hrs", "value": 10.2, "unit": "mg/kg"}, {"measurement": "ED20", "setting": "[3]; 24 hrs", "value": 46.4, "unit": "mg/kg"}]}
{"compound": "CCCCCCCCCCCCC(C#N)(CCCN(C)CCc1ccc(SCC)cc1)c1cccc(OC)c1", "note": "(stereo not drawn) [Example 42, 1-(4-Ethylmercaptophenyl)-3-methylaza-7-cyano-7-(3-methoxyphenyl)-nonadecane]", "values": [{"measurement": "Lowering of systolic blood pressure, R.A. (relative activity; verapamil = 1.00)", "setting": "[3]; 2 hrs", "value": 2.25}, {"measurement": "ED20", "setting": "[3]; 2 hrs", "value": 0.3, "unit": "mg/kg"}, {"measurement": "ED20", "setting": "[3]; 24 hrs", "value": 58.3, "unit": "mg/kg"}]}
{"compound": "CCCCCCCCCCCCC(C#N)(CCCN(C)CCc1cc(OC)cc(OC)c1)c1cccc(OCC)c1", "note": "(stereo not drawn) [Example 70, 1-(3,5-Dimethoxyphenyl)-3-methylaza-7-cyano-7-(3-ethoxyphenyl)-nonadecane]", "values": [{"measurement": "ED33", "setting": "[2]", "value": 119, "unit": "mg/kg"}]}
{"compound": "CCCCCCCCCCCCC(C#N)(CCCNCCc1cccc(OC)c1)c1cccc(OC)c1", "note": "(stereo not drawn) [Example 75, 1,7-bis-(3-Methoxyphenyl)-3-aza-7-cyano-nonadecane]", "values": [{"measurement": "ED33", "setting": "[2]", "value": 90.2, "unit": "mg/kg"}]}
{"compound": "COc1ccc(CCN(C)CCCC(C#N)(c2ccc(OC)c(OC)c2)C(C)C)cc1OC", "note": "(stereo not drawn) [Verapamil, 1,7-bis-(3,4-dimethoxyphenyl)-3-methylaza-7-cyano-8-methyl-nonane, reference compound]", "values": [{"measurement": "ED20", "setting": "[3]; 2 hrs", "value": 23.2, "unit": "mg/kg"}, {"measurement": "ED20", "setting": "[3]; 6 hrs", "value": 20.6, "unit": "mg/kg"}, {"measurement": "Antihypertensive action (in words)", "setting": "[3]", "value": "ineffective"}, {"measurement": "% inhibition (diameter of colored spot, PCA)", "setting": "[4]; latency period 2 hours", "value": 53, "unit": "%"}, {"measurement": "% inhibition (diameter of colored spot, PCA)", "setting": "[4]; latency period 6 hours", "value": 50, "unit": "%"}, {"measurement": "% inhibition (diameter of colored spot, PCA)", "setting": "[4]; latency period 12 hours", "value": 33, "unit": "%"}, {"measurement": "% inhibition (diameter of colored spot, PCA)", "setting": "[4]; latency period 24 hours", "value": 31, "unit": "%"}]}
